Measured values published in patent publication US20220282217A1, “COMPOSITIONS AND METHODS FOR PREPARING T CELL COMPOSITIONS AND USES THEREOF” (priority 2019, published 2022).
Where a SMILES comes first, the peptide text is derived from it.

Target: HLA-A02.01 (Homo sapiens, UniProt P04439, D140Y/D185E/D98H/E176V/E277Q/G131W/G231S/I119V/I121R/I166T/I218V/L300P/L318F/N151K/N90K/P208A/P217A/Q86G/Q94H/R138H/R169H/T345S)
Experiment: Class I MHC peptide binding affinity (displacement of radiolabeled reference peptide)
Details: allele A02.01; read-out: Observed Affinity (IC50; (nM))
Experimental: In brief, MHCI complexes were prepared and bound to radiolabeled reference peptides. Peptides were incubated at varying concentrations with these complexes for 2 days, and the amount of remaining radiolabeled peptide bound to […] was measured using size exclusion gel-filtration.

Row | IC50 [nM] | Compound
1 | 6.7 | CC[C@H](C)[C@H](N)C(=O)N[C@@H](CC(C)C)C(=O)N[C@@H](CC(C)C)C(=O)N1CCC[C@H]1C(=O)N[C@@H](CCC(=O)O)C(=O)N[C@@H](CC(=O)O)C(=O)N[C@H](C(=O)N1CCC[C@H]1C(=O)N1CCC[C@H]1C(=O)N[C@@H](CC(C)C)C(=O)O)[C@@H](C)O (H-ILLPEDTPPL-OH; N-terminus and C-terminus assumed)
2 | 3450 | CC[C@H](C)[C@H](N)C(=O)N[C@@H](CC(C)C)C(=O)N[C@@H](CCSC)C(=O)N[C@@H](CCC(=O)O)C(=O)N[C@@H](CC(C)C)C(=O)N[C@@H](CCSC)C(=O)N[C@@H](C)C(=O)NCC(=O)NCC(=O)N[C@@H](CC(=O)O)C(=O)O (H-ILMELMAGGD-OH; N-terminus and C-terminus assumed)
3 | 7320 | CC[C@H](C)[C@H](N)C(=O)N[C@@H](CCSC)C(=O)N[C@@H](CO)C(=O)N[C@@H](CC(C)C)C(=O)N[C@@H](Cc1c[nH]c2ccccc12)C(=O)NCC(=O)N[C@@H](CC(C)C)C(=O)N[C@H](C(=O)N[C@@H](CO)C(=O)O)C(C)C (H-IMSLWGLVS-OH)
4 | 7490 | CC[C@H](C)[C@H](N)C(=O)N[C@H](C(=O)N[C@@H](C)C(=O)N[C@@H](Cc1ccccc1)C(=O)N[C@@H](Cc1ccccc1)C(=O)N[C@@H](Cc1ccccc1)C(=O)N[C@@H](CS)C(=O)N[C@@H](Cc1c[nH]c2ccccc12)C(=O)N[C@H](C(=O)O)[C@@H](C)CC)[C@@H](C)O (H-ITAFFFCWI-OH; N-terminus and C-terminus assumed)
5 | 78.7 | CC[C@H](C)[C@H](N)C(=O)N[C@H](C(=O)N[C@@H](C)C(=O)N[C@@H](Cc1ccccc1)C(=O)N[C@@H](Cc1ccccc1)C(=O)N[C@@H](CC(C)C)C(=O)N[C@@H](CC(C)C)C(=O)N[C@@H](CC(=O)O)C(=O)N[C@H](C(=O)O)[C@@H](C)CC)[C@@H](C)O (H-ITAFFLLDI-OH; N-terminus and C-terminus assumed)
6 | 12.7 | CC[C@H](C)[C@H](N)C(=O)N[C@H](C(=O)N[C@@H](CO)C(=O)N[C@@H](CCCNC(=N)N)C(=O)N[C@H](C(=O)N[C@@H](CC(C)C)C(=O)N[C@@H](CC(C)C)C(=O)N[C@@H](CC(C)C)C(=O)N[C@H](C(=O)O)C(C)C)[C@@H](C)O)C(C)C (H-IVSRTLLLV-OH; N-terminus and C-terminus assumed)
7 | 101 | CC[C@H](C)[C@H](NC(=O)[C@H](CC(C)C)NC(=O)[C@@H]1CCCN1C(=O)[C@H](Cc1ccccc1)NC(=O)[C@H](CC(C)C)NC(=O)[C@H](CCC(=O)O)NC(=O)[C@@H]1CCCN1C(=O)CNC(=O)[C@@H](N)CCCCN)C(=O)O (H-KGPELFPLI-OH)
8 | 1400 | CC[C@H](C)[C@H](NC(=O)[C@@H](N)CCCCN)C(=O)N[C@H](C(=O)N[C@@H](CCC(=O)O)C(=O)N[C@@H](CCC(N)=O)C(=O)N[C@@H](CCC(=O)O)C(=O)N[C@@H](CCCCN)C(=O)N[C@@H](CC(=O)O)C(=O)N[C@@H](Cc1ccccc1)C(=O)N[C@@H](CC(C)C)C(=O)O)[C@@H](C)O (H-KITEQEKDFL-OH; N-terminus and C-terminus assumed)
9 | 289 | CSCC[C@H](NC(=O)[C@H](CC(C)C)NC(=O)[C@H](CCCCN)NC(=O)[C@@H](N)CCCCN)C(=O)N[C@@H](CC(C)C)C(=O)N[C@@H](CC(C)C)C(=O)N[C@@H](CCCNC(=N)N)C(=O)N[C@@H](CC(C)C)C(=O)N[C@@H](CC(N)=O)C(=O)N[C@@H](CC(C)C)C(=O)O (H-KKLMLLRLNL-OH; N-terminus and C-terminus assumed)
10 | 26.5 | CC(C)C[C@H](NC(=O)[C@H](CO)NC(=O)[C@@H](NC(=O)[C@@H](NC(=O)[C@H](CO)NC(=O)[C@H](CO)NC(=O)[C@H](Cc1c[nH]c2ccccc12)NC(=O)[C@H](CCC(N)=O)NC(=O)[C@@H](N)CCCCN)C(C)C)[C@@H](C)O)C(=O)O (H-KQWSSVTSL-OH; N-terminus and C-terminus assumed)
11 | 280 | CC(C)C[C@H](NC(=O)[C@H](CCCNC(=N)N)NC(=O)[C@@H](NC(=O)[C@H](CC(C)C)NC(=O)[C@H](CO)NC(=O)[C@@H](N)CCCCN)C(C)C)C(=O)N[C@@H](CO)C(=O)N[C@@H](CO)C(=O)N[C@@H](CS)C(=O)N[C@H](C(=O)O)C(C)C (H-KSLVRLSSCV-OH; N-terminus and C-terminus assumed)
